From patent publication US20230089014A1, “COMPOUND USED AS KINASE INHIBITOR AND USE THEREOF” (TYK MEDICINES (ZHENGZHOU), INC., priority 2020, published 2023) come the findings set out here.

Some results are limits rather than exact numbers.

Format in all cases: biochemical
The target of one assay is EGFR D770-N771insNPG (Homo sapiens, UniProt P00533, INS770NPG). Description: Kinase activity assay (33P-ATP filter-binding) on EGFR exon 20 insertion mutant kinase D770-N771insNPG. The following applies: ATP at Km.
The next assay deals with Her2 A775-G776insYVMA (Homo sapiens, UniProt P04626, INS775YVMA). Description: Kinase activity assay (33P-ATP filter-binding) on Her2 exon 20 insertion mutant kinase A775-G776insYVMA. The following applies: for IC50: ATP at Km.
Chain of Her2 A775-G776insYVMA (P04626 with tags, fused parts or gaps INS775YVMA limits assumed): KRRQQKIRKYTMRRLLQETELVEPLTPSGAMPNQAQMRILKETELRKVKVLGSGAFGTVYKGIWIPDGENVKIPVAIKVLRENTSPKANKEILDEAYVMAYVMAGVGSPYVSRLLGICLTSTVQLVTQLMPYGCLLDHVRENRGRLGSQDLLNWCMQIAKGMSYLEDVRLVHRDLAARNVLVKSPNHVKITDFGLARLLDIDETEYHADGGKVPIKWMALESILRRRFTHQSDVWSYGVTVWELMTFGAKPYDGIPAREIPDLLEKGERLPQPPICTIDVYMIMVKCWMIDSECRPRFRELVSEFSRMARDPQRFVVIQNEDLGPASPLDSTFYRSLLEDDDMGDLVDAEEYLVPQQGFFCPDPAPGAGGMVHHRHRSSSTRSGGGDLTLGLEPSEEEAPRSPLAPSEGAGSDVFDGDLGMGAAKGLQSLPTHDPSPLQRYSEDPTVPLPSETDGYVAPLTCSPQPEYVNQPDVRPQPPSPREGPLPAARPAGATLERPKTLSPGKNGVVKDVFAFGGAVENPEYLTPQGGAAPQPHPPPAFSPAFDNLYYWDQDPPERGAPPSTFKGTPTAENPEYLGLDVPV
In the next assay the target is EGFR A763_Y764insFHEA (Homo sapiens, UniProt P00533, INS763FHEA). Description: Kinase activity assay (33P-ATP filter-binding) on EGFR exon 20 insertion mutant kinase A763_Y764insFHEA. The following applies: for IC50: ATP at Km.

Method for EGFR A763_Y764insFHEA: (§1) Screening of biological activity of compounds will be performed in duplicate at 10 concentrations.
(§2) Each sample was prepared as a solution with a concentration of 10 mM.
(§3) 1) Basic buffer solution and quench buffer solution for experimental kinases were prepared.
(§4) 2) Compounds for experimental kinases were prepared.
(§5) Compounds for test were dissolved to specific concentrations in 100% dimethyl sulfoxide. (Serial) dilutions were performed with Integra Viaflo Assist assisted DMSO.
(§6) The kinase was added to freshly prepared basic reaction buffer, and any desired cofactors were added to the above substrate solution.
(§7) The EGFR exon 20 insertion mutant kinase was added to the substrate solution and mixed gently; the compound in 100% dimethyl sulfoxide was fed into the kinase reaction mixture by using Acoustic technology (Echo550; nanoliter range) and incubated for 20 minutes at room temperature.
(§8) 33P-ATP (Specific activity 10 Ci/l) was added to the reaction mixture to start the reaction, incubated at room temperature for 2 hours, and the radioactivity was detected by the filter-binding method.
(§9) Kinase activity data are expressed as a percentage of remaining kinase activity in the test sample compared to the medium (dimethyl sulfoxide) reaction. IC50 values and curve fitting were obtained by using Prism ([sequence] software).
Method for EGFR D770-N771insNPG: as §1, §2, §3, §4, §5, §6, §7, §8, §9
Method for Her2 A775-G776insYVMA: as §1, §2, §3, §4, §5, §6, §7, §8, §9

One may read the IC50 as the concentration at which inhibition is half-maximal. Lower therefore signals higher potency. With `C=CC(=O)N1CC2(CC(Oc3cc4c(Nc5ccc(Cl)c(Cl)c5F)ncnc4cc3OC)C2)C1` [Example 13], the 50% inhibitory concentration (IC50) at EGFR D770-N771insNPG (class symbols) is less than 4 nM; on Her2 A775-G776insYVMA (class symbols), less than 4 nM; on EGFR A763_Y764insFHEA (class symbols) it was 4 to 40 nM.

Take `C=CC(=O)N1C[C@H]2C[C@H](Oc3cc4c(Nc5ccc(Cl)c(Cl)c5F)ncnc4cc3OCCOC)C[C@H]2C1` [Example 16]: the IC50 at EGFR D770-N771insNPG (class symbols), on Her2 A775-G776insYVMA (class symbols) and on EGFR A763_Y764insFHEA (class symbols) was less than 4 nM each time.

`C=CC(=O)N1CC(C(=O)c2cc3c(Nc4ccc(Cl)c(Cl)c4F)ncnc3cc2OC)C1` [Example 4]: the IC50 was 3.04 nM on EGFR D770-N771insNPG, less than 4 nM at EGFR D770-N771insNPG (class symbols), 11.8 nM at EGFR A763_Y764insFHEA and 4 to 40 nM on EGFR A763_Y764insFHEA (class symbols).

Consider `C=CC(=O)N1CC(C(F)(F)c2cc3c(Nc4ccc(Cl)c(Cl)c4F)ncnc3cc2OC)C1` [Example 3], for which the IC50 on EGFR D770-N771insNPG was 0.513 nM; on EGFR D770-N771insNPG (class symbols), less than 4 nM; on Her2 A775-G776insYVMA, 2.61 nM; at Her2 A775-G776insYVMA (class symbols) it was less than 4 nM; on EGFR A763_Y764insFHEA it was 1.32 nM; on EGFR A763_Y764insFHEA (class symbols), less than 4 nM. On EGFR A763_Y764insFHEA (EGFR exon 20 insertion mutant kinase, mutant not specified), the “activity relative to that of poziotinib” value is 2-3 times.

With `C=CC(=O)N1C2CC(Sc3cc4c(Nc5ccc(Cl)c(Cl)c5F)ncnc4cc3OC)CC1C2` (stereo not drawn) [Example 8], the IC50 on EGFR D770-N771insNPG (class symbols) and on EGFR A763_Y764insFHEA (class symbols) was 4 to 40 nM throughout.

Turning to `C=CC(=O)N1CC2CC1CC2C(=O)c1cc2c(Nc3ccc(Cl)c(Cl)c3F)ncnc2cc1OC` (stereo not drawn) [Example 9], the IC50 on EGFR D770-N771insNPG (class symbols), at Her2 A775-G776insYVMA (class symbols) and on EGFR A763_Y764insFHEA (class symbols) was 4 to 40 nM each time.

`C=CC(=O)N1CCC(C(F)(F)c2cc3c(Nc4ccc(Cl)c(Cl)c4F)ncnc3cc2OC)CC1` [Example 5]: the IC50 is 1.54 nM at EGFR D770-N771insNPG; less than 4 nM on EGFR D770-N771insNPG (class symbols); 1.02 nM on Her2 A775-G776insYVMA; less than 4 nM at Her2 A775-G776insYVMA (class symbols); 2.19 nM at EGFR A763_Y764insFHEA; less than 4 nM at EGFR A763_Y764insFHEA (class symbols). Also, the “inhibitory activity on Her2 insertion mutant kinase relative to that of poziotinib” value on Her2 A775-G776insYVMA is reported as “about 4 times”.

On to `C=CC(=O)N1CC2CC(Oc3cc4c(Nc5ccc(Cl)c(Cl)c5F)ncnc4cc3OC)CC2C1` (stereo not drawn) [Example 7], for which the half-inhibitory concentration (IC50) is 0.833 nM on EGFR D770-N771insNPG; less than 4 nM at EGFR D770-N771insNPG (class symbols); 1.84 nM on Her2 A775-G776insYVMA; less than 4 nM at Her2 A775-G776insYVMA (class symbols); 4.04 nM at EGFR A763_Y764insFHEA; 4 to 40 nM on EGFR A763_Y764insFHEA (class symbols).

For `C=CC(=O)N1CCC(C(=O)c2cc3c(Nc4ccc(Cl)c(Cl)c4F)ncnc3cc2OC)CC1` [Example 6], the half-maximal inhibitory concentration (IC50) on EGFR D770-N771insNPG is 4.51 nM; on EGFR D770-N771insNPG (class symbols), 4 to 40 nM; at EGFR A763_Y764insFHEA it was 16.2 nM; at EGFR A763_Y764insFHEA (class symbols) it was 4 to 40 nM.

In the case of `C=CC(=O)N1CC2C(C1)C2Oc1cc2c(Nc3ccc(Cl)c(Cl)c3F)ncnc2cc1OC` (stereo not drawn) [Example 10], the IC50 at EGFR D770-N771insNPG (class symbols) and on EGFR A763_Y764insFHEA (class symbols) was less than 4 nM each time.

On to `C=CC(=O)N1C[C@H]2C[C@H](Oc3cc4c(Nc5ccc(Cl)c(Cl)c5F)ncnc4cc3OCCCN3CCOCC3)C[C@H]2C1` [Example 17], for which the IC50 on EGFR D770-N771insNPG (class symbols) is less than 4 nM; on Her2 A775-G776insYVMA (class symbols), less than 4 nM; at EGFR A763_Y764insFHEA (class symbols), 4 to 40 nM.

On to `C=CC(=O)N1C2CCC1CC(C(=O)c1cc3c(Nc4ccc(Cl)c(Cl)c4F)ncnc3cc1OC)C2` (stereo not drawn) [Example 11], for which the IC50 at EGFR D770-N771insNPG (class symbols), at Her2 A775-G776insYVMA (class symbols) and at EGFR A763_Y764insFHEA (class symbols) was 4 to 40 nM in each case.

With `C=CC(=O)N1CC2CN(c3cc4c(Nc5ccc(Cl)c(Cl)c5F)ncnc4cc3OC)CC2C1` (stereo not drawn) [Example 1], the half-inhibitory concentration (IC50) at EGFR D770-N771insNPG was 1.61 nM; on EGFR D770-N771insNPG (class symbols) it was less than 4 nM; on EGFR A763_Y764insFHEA it was 6.68 nM; on EGFR A763_Y764insFHEA (class symbols) it was 4 to 40 nM.

Turning to `C=CC(=O)N1CCC(Oc2cc3c(Nc4ccc(Cl)c(Cl)c4F)ncnc3cc2OC)CC1` [Poziotinib, reference compound], the 50% inhibitory concentration (IC50) on Her2 A775-G776insYVMA was 4.79 nM; at Her2 A775-G776insYVMA (class symbols) it was 4 to 40 nM.

Take `COc1cc2ncnc(Nc3ccc(Cl)c(Cl)c3F)c2cc1N1CCCC1` [Example 2]: the half-maximal inhibitory concentration (IC50) at EGFR D770-N771insNPG was 1.65 nM; at EGFR D770-N771insNPG (class symbols), less than 4 nM; at EGFR A763_Y764insFHEA, 3.03 nM; on EGFR A763_Y764insFHEA (class symbols), less than 4 nM.
